Experimental data published in US10526343B2, “Heterocyclic systems and pharmaceutical applications thereof” (University of Sharjah, priority 2018, dated 2020).

What was measured:
Type in all cases: cell-based
[1] = test system: Bacillus subtilis (environmental isolate); test: Cell viability assay (resazurin) screening for antibacterial activity; design: key: Positive: A positive result indicates antibacterial activity expressed as growth inhibition; Negative: a negative result indicates no antibacterial activity expressed as bacterial growth at the tested concentration; conditions: single high concentration of 1 mg/mL
[2] = test system: UDH-2 (environmental isolate, S. saprophyticus); test: MIC by broth microdilution; conditions: Staphylococcus saprophyticus
Summary of the method: (§1)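 The strains are multidrug-resistant environmental isolates, and MICs were measured by CLSI broth microdilution in Mueller-Hinton broth using two-fold dilutions from 100 to 0.78 μg/mL, incubated 20 h at 37 °C. CellTiter-Blue was then added for 4 h at 37 °C, and the MIC was taken as the lowest concentration preventing the blue-to-pink colour change.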

[3] = test system: UDH-5 (environmental isolate, S. epidermidis); test: MIC by broth microdilution; conditions: Staphylococcus epidermidis
Summary of the method: as §1

[4] = test system: UDH-6 (environmental isolate, S. haemolyticus); test: MIC by broth microdilution
Summary of the method: as §1

[5] = test system: UDH-7 (environmental isolate, S. haemolyticus); test: MIC by broth microdilution
Summary of the method: as §1

[6] = test system: UDH-3 (environmental isolate, S. saprophyticus); test: MIC by broth microdilution
Summary of the method: as §1

[7] = test system: UDH-4 (environmental isolate, S. saprophyticus); test: MIC by broth microdilution; conditions: Staphylococcus saprophyticus
Summary of the method: as §1

[8] = test system: UDH-1 (environmental isolate, S. saprophyticus); test: MIC by broth microdilution
Summary of the method: as §1

[9] = test system: Enterococcus faecalis (ATCC 29212); test: Cell viability assay (resazurin) screening for antibacterial activity; design: key: Positive: A positive result indicates antibacterial activity expressed as growth inhibition; Negative: a negative result indicates no antibacterial activity expressed as bacterial growth at the tested concentration; conditions: single high concentration of 1 mg/mL
[10] = test system: MRSA-1 (clinical isolate, methicillin-resistant Staphylococcus aureus); test: MIC by broth microdilution
Summary of the method: (§2)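 CLSI broth microdilution in Mueller-Hinton broth, two-fold series from 100 to 0.78 μg/mL, incubated 20 h at 37 °C. CellTiter-Blue then added for 4 h at 37 °C. MIC is the lowest concentration preventing the blue-to-pink color change, i.e. no bacterial growth.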

[11] = test system: MRSA-3 (clinical isolate, methicillin-resistant Staphylococcus aureus); test: MIC by broth microdilution
Summary of the method: as §2

[12] = test system: MRSA-2 (clinical isolate, methicillin-resistant Staphylococcus aureus); test: MIC by broth microdilution
Summary of the method: as §2

[13] = test system: Staphylococcus aureus (ATCC 25923); test: Cell viability assay (resazurin) screening for antibacterial activity; conditions: single high concentration of 1 mg/mL
[14] = Staphylococcus haemolyticus, environmental isolate
[15] = Staphylococcus saprophyticus, environmental isolate

- MIC [2]: 6.25 µg/mL
- MIC [3]: 3.12 µg/mL
- MIC [6, 15]: 3.12 µg/mL
- times lower than MIC of ciprofloxacin ([6]; UDH-3): approximately 20 times
- MIC [7]: 6.25 µg/mL
- MIC [8, 15]: 6.25 µg/mL
- times lower than MIC of ciprofloxacin ([8]; UDH-1): approximately 10 times
- times lower than the MIC of ciprofloxacin ([10]; MRSA-1): approximately 10 times
- MIC ([10]; Staphylococcus aureus, MRSA, clinical isolate): 3.12 µg/mL
- MIC [11]: 3.12 µg/mL
- MIC [12]: 3.12 µg/mL
Compound: COC(=O)CC1COc2c(cc3c4c2CCCN4CCC3)-c2c(NC(C)(C)C)n3c(-c4ccc(Br)cc4)c(C)sc3[n+]21 (stereo not drawn) [Compound 1o]
- antibacterial activity, Bacillus subtilis [1]: Positive
- MIC [4, 14]: 6.25 µg/mL
- times lower than MIC of ciprofloxacin ([4]; UDH-6): approximately 10 times
- MIC [5, 14]: 6.25 µg/mL
- times lower than MIC of ciprofloxacin ([5]; UDH-7): approximately 10 times
- antibacterial activity, Enterococcus faecalis [9]: Positive
- antibacterial activity, Staphylococcus aureus [13]: positive antibacterial activities
